In ChEMBL document CHEMBL5338791, “Discovery of Novel 1,3-Diphenylpyrazine Derivatives as Potent S-Phase Kinase-Associated Protein 2 (Skp2) Inhibitors for the Treatment of Cancer” (J Med Chem, 2023):
Calls of active or inactive are those of the source. The rule behind the calls is not given here.

Experiments:
PC-3 [1] = assay: Downregulation of Skp2 level in human PC-3 cells incubated for 48 hrs by Western blot analysis; type: functional, cell-based; settings: dose <= 10.0 µM
PC-3 [2] = assay: Upregulation of p21 level in human PC-3 cells upto 10 uM by Western blot analysis; type: functional, cell-based; settings: time 48.0 hrs, TDE = time-dependent effect
NCI-H1299 = assay: Antitumor activity against human NCI-H1299 cells assessed as cell growth inhibition incubated for 72 hrs by MTT assay; type: functional, cell-based; settings: NCI-H1299, 72 h
MCF7 = assay: Antitumor activity against human MCF7 cells assessed as cell growth inhibition incubated for 72 hrs by MTT assay; type: functional, cell-based; settings: MCF7, 72 h
MGC-803 [3] = assay: Upregulation of p21 level in human MGC-803 cells upto 10 uM by Western blot analysis; type: functional, cell-based; settings: time 48.0 hrs, TDE = time-dependent effect
MGC-803 [4] = assay: Upregulation of p21 level in human MGC-803 cells at 10 uM incubated upto 48 hrs by Western blot analysis; type: functional, cell-based
MGC-803 [5] = assay: Induction of cell cycle arrest in human MGC-803 cells assessed as accumulation of cells at S phase at 2.5 uM incubated for 48 hrs by flow cytometry (reference value: 22.72 %); type: functional
MGC-803 [6] = assay: Induction of cell cycle arrest in human MGC-803 cells assessed as accumulation of cells at G1 phase at 5 uM incubated for 48 hrs by flow cytometry (reference value: 54.46 %); type: functional
MGC-803 [7] = assay: Induction of cell cycle arrest in human MGC-803 cells assessed as accumulation of cells at S phase at 5 uM incubated for 48 hrs by flow cytometry (reference value: 22.72 %); type: functional
PC-3 [8] = assay: Induction of cell cycle arrest in human PC-3 cells assessed as accumulation of cells at G2 phase at 10 uM incubated for 12 hrs by flow cytometry (reference value: 19.34 %); type: functional
PC-3 [9] = assay: Induction of cell cycle arrest in human PC-3 cells assessed as accumulation of cells at G1 phase at 10 uM incubated for 48 hrs by flow cytometry (reference value: 56.81 %); type: functional
MGC-803 [10] = assay: Induction of cell cycle arrest in human MGC-803 cells assessed as accumulation of cells at G1 phase at 10 uM incubated for 24 hrs by flow cytometry (reference value: 57.09 %); type: functional
PC-3 [11] = assay: Induction of apoptosis in human PC-3 cells assessed as cell shrinkage incubated for 48 hrs; type: functional, cell-based; settings: dose <= 10.0 µM
PC-3 [12] = assay: Induction of apoptosis in human PC-3 cells assessed as late apoptotic cells at 2.5 uM incubated for 48 hrs by annexin V-FITC/PI staining based flow cytometry (reference value: 0.45 %); type: functional
PC-3 [13] = assay: Induction of apoptosis in human PC-3 cells assessed as late apoptotic cells at 5 uM incubated for 48 hrs by annexin V-FITC/PI staining based flow cytometry (reference value: 0.45 %); type: functional
PC-3 [14] = assay: Induction of apoptosis in human PC-3 cells assessed as early apoptotic cells at 10 uM incubated for 48 hrs by annexin V-FITC/PI staining based flow cytometry (reference value: 0.85 %); type: functional
MGC-803 [15] = assay: Induction of apoptosis in human MGC-803 cells assessed as necrotic cells at 5 uM incubated for 48 hrs by annexin V-FITC/PI staining based flow cytometry (reference value: 0.89 %); type: functional
MGC-803 [16] = assay: Induction of apoptosis in human MGC-803 cells assessed as necrotic cells at 10 uM incubated for 48 hrs by annexin V-FITC/PI staining based flow cytometry (reference value: 0.89 %); type: functional
MGC-803 [17] = assay: Antitumor activity against human MGC-803 cells xenografted in NOD-SCID mouse model assessed as p21 accumulation at 10 to 50 mg/kg, IG administered once every 2 days for 21 days by Western blot analysis; type: functional, organism-based; settings: dose 10-50 mg/kg, time 21.0 day
MGC-803 [18] = assay: Antitumor activity against human MGC-803 cells xenografted in NOD-SCID mouse model assessed as p27 accumulation at 10 to 50 mg/kg, IG administered once every 2 days for 21 days by Western blot analysis; type: functional, organism-based; settings: dose 10-50 mg/kg, time 21.0 day
[19] = Toxicity in NOD-SCID mouse model xenografted with human MGC-803 cells assessed as change in lung histology at 10 to 50 mg/kg, IG administered once every 2 days for 21 days by H and E staining based analysis; type: organism-based; settings: in vivo, po, 504 h, dose 10-50 mg/kg, time 21 day
[20] = Toxicity in mouse assessed as decrease in total protein level at 10 to 50 mg/kg; type: organism-based; settings: in vivo, dose 10-50 mg/kg
[21] = Half life in tumor of NOD-SCID mouse model xenografted with human PC-3 cells at 25 mg/kg, IG measured upto 48 hrs by LC-MS/MS analysis; type: ADME, organism-based, Neoplasm; settings: po
[22] = Cmax in tumor of NOD-SCID mouse model xenografted with human PC-3 cells at 25 mg/kg, IG measured upto 48 hrs by LC-MS/MS analysis; type: ADME, organism-based, Neoplasm; set-up: time < 48 hrs, dose 25 mg/kg, route ig; settings: po
[23] = MRTlast in tumor of NOD-SCID mouse model xenografted with human PC-3 cells at 25 mg/kg, IG measured upto 48 hrs by LC-MS/MS analysis; type: ADME, organism-based, Neoplasm; settings: po

IC50 (NCI-H1299): 7.1 µM
IC50 (MCF7): 4.4 µM
half-life [21]: 12.6 h
Cmax [22]: 182 ng/g
MRT last at 48 h [23]: 9.9 h
SMILES: O=C(CCl)NC1CCN(c2cnc(-c3ccccc3)c(-c3ccccc3)n2)CC1
Activity (PC-3 [1]): Dose-Dependent Effect
Activity (PC-3 [2]): Tde
Activity (MGC-803 [3]): Tde
Activity (MGC-803 [4]): Active
Activity (MGC-803 [5]): 26.89%
Activity (MGC-803 [6]): 45.12%
Activity (MGC-803 [7]): 35.78%
Activity (PC-3 [8]): 21.89%
Activity (PC-3 [9]): 35.47%
Activity (MGC-803 [10]): 44.68%
Activity (PC-3 [11]): Dose-Dependent Effect
Activity (PC-3 [12]): 4.97%
Activity (PC-3 [13]): 12%
Activity (PC-3 [14]): 0.2%
Activity (MGC-803 [15]): 1.27%
Activity (MGC-803 [16]): 4.73%
Activity (MGC-803 [17]): Active
Activity (MGC-803 [18]): Active
Activity [19]: Non-Toxic
Activity [20]: Toxic
